Measured values published in paper PMC10509173, “Deep learning driven de novo drug design based on gastric proton pump structures” (Communications Biology, 2023).
Values joined by “and” are separate entries in the source; they are usually repeats but may differ in a detail not shown here. Identical values can stand only once. Like-named read-outs stand apart in the source and are kept apart here. Blank lines part the entries; values can stand above or below the compound they belong to.

Tests used:
H+,K+-ATPase [1] = target: H+,K+-ATPase; parameters: method as in PMID 2837231; conditions: cited from earlier work
H+,K+-ATPase [2] = target: T1, H+,K+-ATPase (Sus scrofa, UniProt P19156); assay: K+-dependent ATPase assay, double reciprocal plot and Ki estimation; assay type: biochemical, pig; parameters: H^+,K^+-ATPase-enriched membrane fractions were purified from pig stomach; from tissue; host or cells: pig stomach (gastric membrane fractions); reciprocal K+-stimulated ATPase activity, Lineweaver-Burk raw data: unit not given here; conditions: for reciprocal K+-stimulated ATPase activity, Lineweaver-Burk raw data: replicate values
Excerpt: Data measured from 96-well plate contained triplicates of four different sets of K^+-dependent ATPase assays in the absence or presence of three different concentrations of synthesized compounds. Data were corrected for background values in the absence of K^+ at each compound concentration, and plot them against the double reciprocal axes in Supplementary Fig. 5. Data were also fitted by using simultaneous nonlinear regression as described previously to estimate their Ki values.

H+,K+-ATPase [3] = target: T1, H+,K+-ATPase; assay: Dose-dependent inhibition of H+,K+-ATPase activity, membrane fractions; conditions: for H+,K+-ATPase activity, raw data of dose-dependent inhibition: single replicate values
H+,K+-ATPase [4] = test system: H+,K+-ATPase; parameters: method as in PMID 35604136, PMID 28747707; conditions: cited from earlier work

T1 sequence (P19156 2-1034 limits assumed): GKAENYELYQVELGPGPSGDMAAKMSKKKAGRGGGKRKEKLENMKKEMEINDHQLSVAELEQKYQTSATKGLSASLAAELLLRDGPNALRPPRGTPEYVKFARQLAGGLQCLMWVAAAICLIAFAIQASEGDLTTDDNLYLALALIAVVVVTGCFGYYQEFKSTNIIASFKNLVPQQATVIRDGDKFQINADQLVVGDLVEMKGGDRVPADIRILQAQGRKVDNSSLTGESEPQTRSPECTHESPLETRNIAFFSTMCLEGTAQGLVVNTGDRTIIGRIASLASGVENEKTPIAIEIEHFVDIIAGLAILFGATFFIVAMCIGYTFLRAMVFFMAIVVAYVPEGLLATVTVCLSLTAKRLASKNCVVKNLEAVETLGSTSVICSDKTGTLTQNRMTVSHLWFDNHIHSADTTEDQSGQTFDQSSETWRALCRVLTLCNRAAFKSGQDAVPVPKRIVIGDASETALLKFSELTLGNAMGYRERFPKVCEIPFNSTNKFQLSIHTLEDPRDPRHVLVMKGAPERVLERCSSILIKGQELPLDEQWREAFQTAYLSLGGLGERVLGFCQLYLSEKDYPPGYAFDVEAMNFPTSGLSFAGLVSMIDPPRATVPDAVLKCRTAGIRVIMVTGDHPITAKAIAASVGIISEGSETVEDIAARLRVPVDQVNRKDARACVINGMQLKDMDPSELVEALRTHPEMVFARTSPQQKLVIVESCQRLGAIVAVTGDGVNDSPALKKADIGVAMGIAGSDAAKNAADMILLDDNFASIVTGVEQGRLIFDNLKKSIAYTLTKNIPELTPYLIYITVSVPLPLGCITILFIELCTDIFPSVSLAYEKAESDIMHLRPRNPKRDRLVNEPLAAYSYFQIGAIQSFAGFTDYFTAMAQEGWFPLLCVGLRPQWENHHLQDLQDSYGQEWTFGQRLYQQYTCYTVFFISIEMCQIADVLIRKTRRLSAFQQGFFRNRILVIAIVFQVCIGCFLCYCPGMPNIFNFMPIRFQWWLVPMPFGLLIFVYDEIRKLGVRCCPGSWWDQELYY
T1 sequence (P18434 whole entry partner): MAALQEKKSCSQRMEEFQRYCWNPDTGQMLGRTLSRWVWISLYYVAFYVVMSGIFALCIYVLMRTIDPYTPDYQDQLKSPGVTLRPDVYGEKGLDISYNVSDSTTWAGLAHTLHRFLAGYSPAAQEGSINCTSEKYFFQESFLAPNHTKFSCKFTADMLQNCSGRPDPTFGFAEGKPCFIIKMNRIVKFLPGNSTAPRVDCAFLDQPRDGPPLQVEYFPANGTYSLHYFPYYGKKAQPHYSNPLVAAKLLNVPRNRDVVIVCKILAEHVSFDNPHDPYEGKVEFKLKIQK

Compound: Cc1nc2c(OCc3ccccc3)cccn2c1CC#N [SCH28080]
Ki (H+,K+-ATPase [1]; pH 6.11): 20 nM | Ki (H+,K+-ATPase [1]; pH 7.35): 66 nM

Ki (H+,K+-ATPase [2]; K+-competitive inhibition, read-out: Ki): 93.8 nM | reciprocal K+-stimulated ATPase activity, Lineweaver-Burk raw data (H+,K+-ATPase [2]; compound concentration 50, 1/KCl 0.05 (units not given)): 0.0059 and 0.0057 and 0.006 | reciprocal K+-stimulated ATPase activity, Lineweaver-Burk raw data (H+,K+-ATPase [2]; compound concentration 50, 1/KCl 0.1 (units not given)): 0.0075 and 0.0077 and 0.0078 | reciprocal K+-stimulated ATPase activity, Lineweaver-Burk raw data (H+,K+-ATPase [2]; compound concentration 50, 1/KCl 0.125 (units not given)): 0.0067 and 0.0066 and 0.007 | reciprocal K+-stimulated ATPase activity, Lineweaver-Burk raw data (H+,K+-ATPase [2]; compound concentration 50, 1/KCl 0.2 (units not given)): 0.0088 and 0.0086 and 0.0089 | reciprocal K+-stimulated ATPase activity, Lineweaver-Burk raw data (H+,K+-ATPase [2]; compound concentration 50, 1/KCl 0.5 (units not given)): 0.0111 and 0.011 and 0.0112 | reciprocal K+-stimulated ATPase activity, Lineweaver-Burk raw data (H+,K+-ATPase [2]; compound concentration 50, 1/KCl 1 (units not given)): 0.0282 and 0.0275 and 0.0291 | reciprocal K+-stimulated ATPase activity, Lineweaver-Burk raw data (H+,K+-ATPase [2]; compound concentration 50, 1/KCl 2 (units not given)): 0.035 and 0.034 and 0.0286 | reciprocal K+-stimulated ATPase activity, Lineweaver-Burk raw data (H+,K+-ATPase [2]; compound concentration 100, 1/KCl 0.05 (units not given)): 0.0066 and 0.0063 and 0.0065 | reciprocal K+-stimulated ATPase activity, Lineweaver-Burk raw data (H+,K+-ATPase [2]; compound concentration 100, 1/KCl 0.1 (units not given)): 0.0087 and 0.0094 and 0.0098 | reciprocal K+-stimulated ATPase activity, Lineweaver-Burk raw data (H+,K+-ATPase [2]; compound concentration 100, 1/KCl 0.125 (units not given)): 0.0086 and 0.0083 and 0.0082 | reciprocal K+-stimulated ATPase activity, Lineweaver-Burk raw data (H+,K+-ATPase [2]; compound concentration 100, 1/KCl 0.2 (units not given)): 0.011 and 0.0106 and 0.0113 | reciprocal K+-stimulated ATPase activity, Lineweaver-Burk raw data (H+,K+-ATPase [2]; compound concentration 100, 1/KCl 0.5 (units not given)): 0.0167 and 0.0156 and 0.0168 | reciprocal K+-stimulated ATPase activity, Lineweaver-Burk raw data (H+,K+-ATPase [2]; compound concentration 100, 1/KCl 1 (units not given)): 0.0412 and 0.0415 and 0.043 | reciprocal K+-stimulated ATPase activity, Lineweaver-Burk raw data (H+,K+-ATPase [2]; compound concentration 100, 1/KCl 2 (units not given)): 0.056 and 0.0496 and 0.0604 | reciprocal K+-stimulated ATPase activity, Lineweaver-Burk raw data (H+,K+-ATPase [2]; compound concentration 400, 1/KCl 0.05 (units not given)): 0.0084 and 0.0076 and 0.008 | reciprocal K+-stimulated ATPase activity, Lineweaver-Burk raw data (H+,K+-ATPase [2]; compound concentration 400, 1/KCl 0.1 (units not given)): 0.0109 and 0.0112 and 0.011 | reciprocal K+-stimulated ATPase activity, Lineweaver-Burk raw data (H+,K+-ATPase [2]; compound concentration 400, 1/KCl 0.125 (units not given)): 0.0123 and 0.011 and 0.0111 | reciprocal K+-stimulated ATPase activity, Lineweaver-Burk raw data (H+,K+-ATPase [2]; compound concentration 400, 1/KCl 0.2 (units not given)): 0.0153 and 0.0154 and 0.0157 | reciprocal K+-stimulated ATPase activity, Lineweaver-Burk raw data (H+,K+-ATPase [2]; compound concentration 400, 1/KCl 0.5 (units not given)): 0.0261 and 0.0253 and 0.0282 | reciprocal K+-stimulated ATPase activity, Lineweaver-Burk raw data (H+,K+-ATPase [2]; compound concentration 400, 1/KCl 1 (units not given)): 0.069 and 0.0649 and 0.0653 | reciprocal K+-stimulated ATPase activity, Lineweaver-Burk raw data (H+,K+-ATPase [2]; compound concentration 400, 1/KCl 2 (units not given)): 0.097 and 0.0973 and 0.106 | inhibition mode (H+,K+-ATPase [2]; double reciprocal plot, versus K+): purely competitive with K^+ | IC50 (H+,K+-ATPase [3]): 700 ± 40 nM
Compound: CNCc1ccc(OCc2ccccc2OCc2ccccc2)cc1 [DQ-06]
H+,K+-ATPase activity, raw data of dose-dependent inhibition (H+,K+-ATPase [3]; [PCAB] -3.30103 (log, unit not given)): 0.01 and -0.01 and 0.22 and -0.22 and -0.74 and -0.4 | H+,K+-ATPase activity, raw data of dose-dependent inhibition (H+,K+-ATPase [3]; [PCAB] -3.52288 (log, unit not given)): 1.74 and 1.71 and 2.79 and 2.38 and 1.76 and 2.41 | H+,K+-ATPase activity, raw data of dose-dependent inhibition (H+,K+-ATPase [3]; [PCAB] -4 (log, unit not given)): 5.02 and 5.03 and 3.19 and 3.1 and 2.85 and 2.51 | H+,K+-ATPase activity, raw data of dose-dependent inhibition (H+,K+-ATPase [3]; [PCAB] -4.30103 (log, unit not given)): 5.51 and 5.6 (2×) and 5.65 and 5.75 and 5.83 | H+,K+-ATPase activity, raw data of dose-dependent inhibition (H+,K+-ATPase [3]; [PCAB] -4.52288 (log, unit not given)): 5.58 and 6.16 and 6.26 and 6.39 and 7.23 and 7.48 | H+,K+-ATPase activity, raw data of dose-dependent inhibition (H+,K+-ATPase [3]; [PCAB] -5 (log, unit not given)): 9.37 and 9.6 and 11.28 and 10.91 and 10.15 and 11.11 | H+,K+-ATPase activity, raw data of dose-dependent inhibition (H+,K+-ATPase [3]; [PCAB] -5.52288 (log, unit not given)): 20.15 and 21.1 and 19.71 and 21.04 and 20.73 and 20.63 | H+,K+-ATPase activity, raw data of dose-dependent inhibition (H+,K+-ATPase [3]; [PCAB] -6 (log, unit not given)): 39.09 and 39.39 and 38.28 and 36.79 and 38.33 and 39.14 | H+,K+-ATPase activity, raw data of dose-dependent inhibition (H+,K+-ATPase [3]; [PCAB] -6.30103 (log, unit not given)): 57.6 and 58.17 and 57.79 and 57.15 and 58.12 and 57.53 | H+,K+-ATPase activity, raw data of dose-dependent inhibition (H+,K+-ATPase [3]; [PCAB] -7 (log, unit not given)): 90.69 and 91.88 and 87.97 and 84.74 and 90.82 and 88.26 | H+,K+-ATPase activity, raw data of dose-dependent inhibition (H+,K+-ATPase [3]; [PCAB] -8 (log, unit not given)): 101.14 and 100.91 and 95.09 and 94.94 and 96.97 and 96.94 | H+,K+-ATPase activity, raw data of dose-dependent inhibition (H+,K+-ATPase [3]; [PCAB] -11 (log, unit not given; possibly placeholder for no compound)): 102.84 and 103.26 and 99.81 and 97.12 and 97.38 and 101.76

Compound: Cc1nc2c3c(ccn2c1C)[C@@H](O)[C@H](O)[C@@H](c1ccccc1)N3 [BYK99]
times higher apparent affinity than SCH28080 (H+,K+-ATPase [4]): more than 25 times

Compound: COCCO[C@@H]1c2ccn3c(C)c(C)nc3c2N[C@H](c2ccccc2)[C@H]1O [soraprazan]
times higher apparent affinity than SCH28080 (H+,K+-ATPase [4]): > 7 times
